Reference: a melting point compilation (Tetko et al.; mined from patent text by program, amines drawn as free bases though some values may be those of a salt)

| Compound | melting point [°C] |
| --- | --- |
| O=C(O)c1cc(Br)ccc1OCC(F)(F)F | 126 to 128 |
| Nc1ncnc2c1nnn2[C@@H]1C[C@H](CO)[C@@H](O)[C@@H]1F | 214 to 216 |
| COc1cc2cn(-c3nccs3)nc2cc1OC | 184 to 187 |
| Cc1cc2c(s1)CCCc1cc(=O)n(-c3ccc(Cl)cc3)nc1-2 | 150 to 151 |
| CCOC(=O)c1cn(C2CC2)c2c(F)c(-c3cc(C)nc(C)c3)c(F)cc2c1=S | 194 to 195 |
| C[C@@H]1CCC[C@H](C)N1CCNC(=O)CN1C(=O)CCC1(C)C | 94 to 94.5 |
| Cc1cccc(C)c1C(=O)OCC(N)=O | 106 to 108 |
| COC(=O)C#CC(=O)c1cccc(C)c1 | 36 to 38 |
| Cn1c(C(F)(F)F)cc(=O)n(-c2cc(OCCCl)c(Cl)cc2F)c1=O | 100 to 103 |
| COc1ccc2c(c1)NCCO2 | 59 to 61 |
| ClCc1c(Cl)nnc(Cl)c1Cl | 102 to 104 |
| CCCc1nc2c(N)nc3cc(F)ccc3c2s1 | 192 to 194 |
| CNCC[C@H](O)c1cccs1 | 68 to 70 |
| CC(CC(=O)O)C(=O)N1CCC[C@H]1C(=O)O (stereo partly specified) | 132 to 133 |
| NS(=O)(=O)OCCOc1ccc(Cl)cc1 | 117 to 119 |
| CC(C)S(=O)(=O)C(C#N)=C(Nc1cc(C(F)(F)F)cc(C(F)(F)F)c1)NC1CCC1 | 148 to 150 |
| Cc1ccc(C#CC2CCC3C4CCC5CC(O)CCC5(C)C4CCC23C)cc1 (stereo unspecified) | 178 to 180 |
| O=C(O)CCNC1CCCN(c2ccc3c(C(=O)NCC45CC6CC(CC(C6)C4)C5)c(Cl)ccc3n2)C1 (stereo unspecified) | 176 to 189 |
| CCOC(=O)C(C#N)=CNc1ncc(C)cc1C | 156 to 159 |
| CC(C)C[C@H](NC(=O)c1ccc(C(=N)N)cc1)C(=O)N1CCc2nn(CC(=O)O)cc2C1 | 165 to 169 |
| Cc1nc(C(C)C)nc(C)c1N1CCCn2c1nc1c(Cl)ccc(C(OC(F)F)C(F)(F)F)c12 (stereo unspecified) | 204 to 206 |

| Compound | melting point [°C] |
| --- | --- |
| COC(=O)c1c(OC)cc(OC)nc1C(F)(F)F | 85 to 87.5 |
| O=C(CN1CCCNC1=O)N1CCC(C2c3ncc(Br)cc3CCc3cc(Cl)cc(Br)c32)CC1 (single isomer, unassigned; (+)) | 155 to 156 |
| N#Cc1cc(C(F)(F)F)[nH]c1-c1ccc(C=O)o1 | 224 to 225 |
| Cc1cc(F)ccc1-c1cc(OC2SCC(O)C(O)C2O)ccn1 (stereo unspecified) | 147 |
| COn1c(C)nn(-c2cc(F)c(C#N)cc2Cl)c1=O | 102 |
| CCN1CCN(CCN2CC[C@H](NC(=O)c3cc(Cl)c(N)cc3OC)[C@H](OC)C2)C1=O (relative stereo) | 153 |
| NS(=O)(=O)Oc1ccc([N+](=O)[O-])c(C(F)(F)F)c1 | 95 to 97 |
| CCC1SC(c2ccncc2)=C(C)NC1=O (stereo unspecified) | 121 to 123 |
| Nc1n[nH]c2ncnc(Nc3cccc(Cl)c3)c12 | 232 to 234 |
| COc1cc2c(cc1O)C1Cc3c(Cl)cc(OC)c(OCC(=O)O)c3CN1CC2 (stereo unspecified) | 172 to 174 |
| CN(C=O)c1ccc2[nH]cc(CC#N)c2c1 | 118 to 120 |
| CC12CCC(=O)C=C1CCC1C2CCC2(C)C1CC(O)C2NCC(=O)C(F)(F)F (stereo unspecified) | 217 to 220 |
| COC(=O)NS(=O)(=O)c1ncccc1C(F)(F)F | 128 to 129 |
| Cc1nn(-c2ccc(C(F)(F)F)cn2)cc1COc1cc(C=O)n(C)n1 | 130 to 131 |
| C[Si](C)(C)CC(C#N)CC(=O)O (stereo unspecified) | 39 to 41 |
| Cc1nc2ccccc2n2cnc(-c3noc(C4CC4)n3)c12 | 165 to 167 |
| CCOC(=O)c1c2n(c3cc(N4CCN(C)CC4)c(F)cc3c1=O)CCCC2 | 163 to 165 |
| COc1cc2c(cc1N1CCN(CC3Cc4ccccc4C3)CC1)OCCO2 | 176 to 178 |
| CCOC(=O)c1c(C(F)(F)F)nc(C(F)(F)F)c(C(=O)OC)c1N=[N+]=[N-] | 46 to 47 |
| CCCc1cc(NC(=O)C(=O)OCC)sc1C(=O)OCC | 93 to 94 |
| CC(C)(C)NS(=O)(=O)c1ccc(Cl)cc1C=C1CCOC1=O | 198 to 201 |

More lines, now with the values ahead:

| melting point [°C] | Compound |
| --- | --- |
| 149 to 150 | COc1ccccc1N1CCN(CCCOc2ccc(-c3cn4ccccc4n3)cc2)CC1 |
| 152 to 154 | COc1ccc(CNCC(O)COc2cccc3[nH]c4ccccc4c23)c(OC)c1 (stereo unspecified) |
| 97 to 98 | CCN1C(=O)Cc2cc(C(=O)OC)ccc21 |
| 88 to 91 | CCCn1cc(CO)c(=O)c2ccccc21 |
| 204 to 206 | CS(=O)(=O)c1ccc(-n2cc(-c3ccc4ccccc4c3)nc2-c2ccc(Cl)cc2)cc1 |
| 105 to 107 | CC(c1cccc(-c2ncc(OCCCN(C)C)cn2)c1)n1nc(-c2cccc(C#N)c2)ccc1=O (stereo unspecified) |
| 184 to 186 | CNc1sccc1C(=O)c1ccccc1F |
| 192 to 193 | O=C(CNc1ccccc1)Nc1ccccc1C(=O)O |
| 123 to 124 | O=C1c2ccccc2C(=O)N1CSc1cccnc1 |
| 235 | Cn1c(=O)cc(-c2cccc(Cl)c2)c2cc(C(=O)c3cccc(I)c3)ccc21 |
| 119 to 120 | O=C1NC(c2ccccc2)(c2ccccc2)C(=O)N1COP(=O)(OCc1ccccc1)OCc1ccccc1 |
| > 200 | COC(=O)c1cccc(C[C@H](N)C(=O)O)c1 |
| 204 | COC(=O)C1=C(C)NN=C(c2cccc(Cl)c2)C1c1cccc(Cl)c1 (stereo unspecified) |
| 205 to 207 | Cc1ccc(Nc2nc(-c3ccc(OC(F)(F)F)cc3)cs2)nc1 |
| 127 | CC(=O)OCCNc1nnc(-c2ccccc2)cc1C |
| 103 to 104 | COC(=O)CCc1cnoc1-c1ccc(-c2ccccc2)cc1 |
| 84 to 87 | c1ccc(Cn2c(N3CCCCC3)nc3ccccc32)cc1 |
| 123 to 125 | CCCCCCCCCCCCc1cnn(C(C(=O)Nc2c(OC)cc(OC)cc2OC)c2ccccc2)n1 (stereo unspecified) |
| 129 to 132 | COc1cc(C(C)N(O)C(N)=O)cc(OC)c1OC(C)c1ccccc1 (stereo unspecified) |
| 118 to 119 | CC(C(=O)O)c1ccc(-c2ccc(F)cc2)c(F)c1 (stereo unspecified) |

| melting point [°C] | Compound |
| --- | --- |
| 198 to 200 | CC(=O)NC[C@H]1CN(c2ccc(-c3nc(Cn4ccnc4)co3)c(F)c2)C(=O)O1 |
| 190 to 191 | CC(N(O)C(N)=O)C1(OCc2nc3ccccc3s2)C=CC(c2ccccc2)=CC1 (stereo unspecified) |
| 186 to 187 | COc1cc(COc2nn(-c3ccccc3)cc2/C=C/c2nnc(C)o2)ccc1OCc1nc(-c2ccco2)oc1C |
| 160 to 165 | c1ccc(Cn2c3c(c4ccccc42)CCC(Cc2nnn[nH]2)S3)cc1 (stereo unspecified) |
| 84 to 87 | CCOC(=O)C(NC(=O)Nc1ccccc1Cl)(c1nc(OC)cc(OC)n1)C(C)C (stereo unspecified) |
| 186 to 187 | CC(=O)OCc1cc2c3ccccc3nc(=O)n2[nH]1 |
| 152 to 154 | COCn1ccnc1C(O)(c1ccccc1)c1cccc(C(F)(F)F)c1 (stereo unspecified) |
| > 268 | Oc1ccc(-c2ncc3ncc(-c4cccnc4)cc3n2)cc1 |
| 315 to 318 | Cc1cccc(C)c1CNc1cc(C(=O)O)cc2c1nc(C)n2C |
| 179 to 182 | CS(=O)(=O)c1ccc(-c2[nH]c(SCc3ccc4ccccc4n3)nc2-c2ccc(F)cc2)cc1 |
| 231 | O=C1CC(c2cccc(-n3ccnn3)c2)=Nc2ccc(-c3cc(F)ccc3F)cc2N1 |
| 120 to 121 | OC(c1ccccc1F)c1cc(C(F)(F)F)nc2c(C(F)(F)F)cccc12 (stereo unspecified) |
| 98 to 99 | O=C(c1ccc(Cl)c([N+](=O)[O-])c1)c1ccccn1 |
| 142 to 143 | O=C(O)CCc1cnoc1-c1cc(Cl)c(Cl)s1 |
| 122 to 124 | O=C(Nc1ccc(C(F)(F)F)cc1)N1CCC2Cc3ccccc3C2=N1 (stereo unspecified) |
| 209 to 211 | Brc1ccc(-c2ccc3nncn3n2)cc1 |
| 143 to 145 | CCCCc1c2c(nn1CCCC)c(N)nc1ccccc12 |
| 246 to 248 | O=C(O)CCCC(=O)Nc1cccc(-c2nnc(-c3ccc(C(F)(F)F)cc3)nn2)c1 |
| 171 to 174 | N#Cc1cc(C(=O)NNC(=O)c2occ(-c3cccc(OCc4ccccc4)c3)c2-c2cccc(OCc3ccccc3)c2)ccc1O |
| 180 to 181 | O=C1c2ccccc2C2(c3ccccc3)NCCCCN12 (stereo unspecified) |

| melting point [°C] | Compound |
| --- | --- |
| 130 to 132 | CNc1nccc(-c2cc(NCCCNCCCOC)c3cc(OC)ccc3c2)n1 |
| 92 to 93.5 | CC(Oc1ccc(Oc2ncc(Cl)cc2F)cc1)C(=O)Nc1ccc(OC(F)(F)F)cc1 (stereo unspecified) |
| 229 to 230 | O=C(CCc1nc2ccccc2s1)Nc1cc(N2CC(c3ccccc3)OC2=O)ccn1 (stereo unspecified) |
| 85 to 89 | COC(=O)CCC(=O)c1ccc(O)c(Cl)c1 |
| 146 to 147 | Cc1cc(C2N(c3ccccc3)CCN2c2ccccc2)cc(Cl)c1O |
| 153 to 154 | CCCNc1cccc2c1C(=O)c1cccc(NCCC)c1C2=O |
| 179 | COc1ccc(C)cc1NC(=O)Nc1ccc(N2CCN(C(=O)Oc3ccccc3)CC2)cc1 |
| 79 | O=[N+]([O-])c1ccccc1-c1cc(F)c(F)c(F)c1 |
| 212 to 214 | CCOCc1nc2c(N)nc3ccccc3c2n1CC1(OCCS(C)(=O)=O)CCNCC1 |
| 160 to 161 | N#Cc1cccc(C(=O)Nc2cccc(-n3nc(C(F)(F)F)cc3C(F)(F)F)c2)c1 |
| 170 | O=C(NCCc1ccc(Cl)cc1Cl)Nc1cccc2[nH]ccc12 |
| 150 to 152 | CN(c1cccc2cc(C(=O)NCC(C)(CN3CCOCC3)SCc3ccccc3)[nH]c12)S(=O)(=O)c1cccs1 (stereo unspecified) |
| 49.5 to 52 | COC(=O)C(C)c1ccc2cc(OC(=O)CO)ccc2c1 (stereo unspecified) |
| 143 to 145 | CSc1ccc(-c2cc(C(F)F)nn2-c2ccc(C(C)=O)cc2)cc1 |
| 206 | CC(C)[C@H](NC(=O)OCc1ccccc1)C(N)=O |
| 168 to 170 | CCn1c(Oc2cccc(NC=O)c2)nnc1[C@@H](C)NS(=O)(=O)c1ccc(Cl)c(Cl)c1 |
| 120 | CNC(=O)NCc1cncn1C1c2ccccc2CCC1(C)C (stereo unspecified) |
| 175 to 176 | Nc1ccc(N2CCN(Cc3ccccc3)CC2)nc1CS(=O)(=O)c1ccccc1 |
| 108 to 110 | COc1ccc(NCCCN)c2c1C(=O)c1ccccc1C2=O |
